Reference: patent publication US10532053B2, “Histone deacetylase inhibitor, and preparation method and use thereof” (GUANGDONG ZHONGSHENG PHARMACEUTICAL CO., LTD, priority 2015, dated 2020)
Where two headings read alike, the source gives them in different places.

Legend:
HDAC8 = molecular target: T1, HDAC8 (Homo sapiens, UniProt Q9BY41); experiment: HDAC inhibitory activity, fluorescence-coupled acetylated peptide substrate assay
T1 sequence (Q9BY41 1-377): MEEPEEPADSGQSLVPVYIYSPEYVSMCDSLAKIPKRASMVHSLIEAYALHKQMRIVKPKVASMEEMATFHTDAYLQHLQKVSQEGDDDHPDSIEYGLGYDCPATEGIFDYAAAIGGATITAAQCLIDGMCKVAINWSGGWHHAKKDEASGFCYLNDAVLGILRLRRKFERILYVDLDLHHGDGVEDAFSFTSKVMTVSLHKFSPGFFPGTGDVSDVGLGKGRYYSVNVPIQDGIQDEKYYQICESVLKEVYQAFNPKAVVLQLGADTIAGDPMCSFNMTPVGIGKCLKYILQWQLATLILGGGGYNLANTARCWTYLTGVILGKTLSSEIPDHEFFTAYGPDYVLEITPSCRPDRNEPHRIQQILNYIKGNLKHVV
Procedure: The HDAC inhibitory activity was determined by fluorescence-coupled acetylated peptide substrate assay (Lys-Ac-AMC). HDAC1 protein was purchased from BPS Bioscience, and the reaction buffer system was a modified tris(hydroxymethyl)aminomethane buffer (pH 7.0). The small molecule compounds of the present invention were prepared by being dissolved in 100% DMSO. HDAC was prepared in a buffer at a certain concentration as an enzyme solution; trypsin and fluorescent group 4-amino-7-coumarin coupled-acetylated peptide (Ac-peptide) substrate were prepared in a buffer at a certain concentration as a substrate solution. The compounds were added into the reaction wells in a 384-well plate at a designed concentration of 10 μM, 1 μM, 0.5 μM, 0.1 μM, 0.05 μM, 0.01 μM, 0.005 μM, 0.001 μM, and 0.00005 μM, respectively, and then 15 μl of the HDAC solution was added into the reaction wells (15 μl of blank buffer to the control well). […] The results were analyzed by GraphPad Prism software and IC50 values were calculated according to the formula: Y=Background Data+(Top Data−Background Data)/(1+10^((Log IC50−X) a curve slope)), where Y: the inhibition rate (%) and X: the concentration of the compound.

Ovarian cancer A2780s = experiment: Cell proliferative activity (MTT / cck-8); type: cell-based; details: Homo sapiens, read-out: Half-Inhibitory Concentration IC50 A2780s
Breast cancer SKBR3 = experiment: Cell proliferative activity (MTT / cck-8); type: cell-based; details: Homo sapiens, SK-BR-3, read-out: Half-Inhibitory Concentration IC50 SKBR3
[1] = Assay on the bioavailability in SD rats (plasma, LC-MS/MS); type: in vivo; details: for Area under the curve / Clearance rate / Distribution volume / Half-life / Maximum plasma concentration: dose 12 mg/kg (Table 6)
[2] = test system: acetylation level of HDAC substrate (Ac-α-tubulin, Ac-H3); experiment: Western blot assay for detecting the level of acetylated proteins; type: cell-based; details: HCT116 cells (FIG. 3) or MV4-11 cells (FIG. 4)
Procedure: The compounds or the positive control compound were added into each group of cells already adherent to the walls (2×10^6 HCT116 cells or 5×10^6 MV4-11 cells) at a designed concentration. After treatment for 4 hours, trypsin was added for digestion, followed by collecting the cells. After washing with cold PBS twice, the cells were lysed by adding RIPA lysis solution (which was purchased from Beyotime, Art. No.: P0013B, adding 1 mM PMSF before use), allowing for lysis on ice for 30 minutes while vortexing at intervals. The lysate was subjected to ultrasonic treatment on an ice bath (ultrasonicated for 3 seconds and repeated 5 times for each group at an interval of 10 seconds). The supernatant was collected by centrifugation at 12,000 g for 20 min at 4° C. and then mixed the SDS-PAGE loading buffer (purchased from Beyotime, Art. No.: P0015F). The mixture was heated in boiling water for 5 minutes to obtain a protein sample. The protein concentration of the sample was quantified by BCA method. 20 […] total protein from each group was subjected to 15% SDS-PAGE electrophoresis, and 5μl of a pre-stained protein marker (purchased from Thermo, Art. No.: 26616) was loaded to an additional selective lane in order to compare protein molecular weights as well as to detect the transmembrane result. When the bromophenol blue bands ran close to the bottom of the gel, the electrophoresis was terminated and the proteins on the gel were transferred to a PVDF membrane at a pore size of 0.22 μm. After 1.5 hours of transmembrane at a constant current of 200 mA, the PVDF membrane was removed and blocked in 5% skimmed milk for 1 hour. After completion of blocking, the membrane was incubated with the primary antibody (Ac-H3 antibody was purchased from Santa Cruz, Art. No.: sc-56616; Ac-α-tubulin antibody was purchased from Santa Cruz, Art. No.: sc-23950) overnight at 4° C. and then washed with TBS/T for 10 minutes for 3 times. The membrane was incubated with the horseradish peroxidase-coupled secondary antibody at room temperature for 1 hour, and then washed with TBS/T for 10 minutes for 3 times. After washing with TBS for 5 minutes, the membrane was exposed and developed by using a film in the darkroom. The detected GAPDH protein was an internal reference protein (GAPDH antibody was purchased from ZSGB-Bio, Art. No.: TA-08).

[3] = test system: Human liver cancer cell HepG2; experiment: Cell proliferative activity (MTT / cck-8); type: cell-based
Method in brief: (§1)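 Logarithmic-phase tumor cells were plated at 2000-3000 cells/well in 96-well plates, adherent lines allowed to attach. Proliferation was read by MTT for solid-tumor lines and by CCK-8 for hematologic lines.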

Human melanoma A375 = experiment: Cell proliferative activity (MTT / cck-8); type: cell-based; details: A-375, incubated for 96 hours, read-out: Half-Inhibitory Concentration IC50 Human melanoma A375
Method in brief: as §1

Leukemia K562 = experiment: Cell proliferative activity (MTT / cck-8); type: cell-based; details: Homo sapiens, read-out: Half-Inhibitory Concentration IC50 K562
Method in brief: as §1

Leukemia MV4-11 = experiment: Cell proliferative activity (MTT / cck-8); type: cell-based; details: Homo sapiens, read-out: Half-Inhibitory Concentration IC50 MV4-11
Method in brief: as §1

[4] = test system: Human ovarian cancer cell SKOV-3; experiment: Cell proliferative activity (MTT / cck-8); type: cell-based
Method in brief: as §1

Multiple myeloma U266 = experiment: Cell proliferative activity (MTT / cck-8); type: cell-based; details: Homo sapiens, U-266, read-out: Half-Inhibitory Concentration IC50 U266
Method in brief: as §1

[5] = test system: Human cervical cancer cell Hela; experiment: Cell proliferative activity (MTT / cck-8); type: cell-based
Method in brief: as §1

B-cell lymphoma Ramos = experiment: Cell proliferative activity (MTT / cck-8); type: cell-based; details: Homo sapiens, read-out: Half-Inhibitory Concentration IC50 Ramos
Method in brief: as §1

[6] = test system: Multiple myeloma RPMI8226; experiment: Cell proliferative activity (MTT / cck-8); type: cell-based; details: Homo sapiens, RPMI-8226, read-out: Half-Inhibitory Concentration IC50 RPMI8226
Method in brief: as §1

**Q.** Which IC50 (HDAC8; IC50 HDAC8, Table 2) does the source give for `COc1ccc(N(C)c2nc(C)nc3ccccc23)cc1OCCCC(=O)NO` [III-2, N-hydroxy-4-(2-methoxy-5-(methyl(2-methyl-4-quinazolinyl)amino)phenoxy) butanamide] here?
**A.** Its IC50 is over 1000 nM.

**Q.** And the IC50 (HDAC8; read-out: IC50 HDAC8, Table 4, Class I)?
**A.** The IC50 was 3400 ± 487 nM.

**Q.** What about the IC50 (Ovarian cancer A2780s) of the same molecule?
**A.** The IC50 was 46 ± 11 nM.

**Q.** What about the IC50 (Breast cancer SKBR3) of the same molecule?
**A.** Its IC50 is 22 ± 8 nM.

**Q.** And the “Area under the curve” value ([1]; intravenous administration)?
**A.** The value was 2434.117 μg/L · h.

**Q.** What about the Clearance rate ([1]; intravenous administration) of the same molecule?
**A.** The Clearance rate was 116.8 mL/min/kg.

**Q.** What about the Distribution volume ([1]; intravenous administration) of the same molecule?
**A.** The Distribution volume was 61.263 L/kg.

**Q.** What about the Half-life ([1]; intravenous administration) of the same molecule?
**A.** Its Half-life is 7.658 h.

**Q.** And the Maximum plasma concentration ([1]; intravenous administration)?
**A.** The Maximum plasma concentration was 2213.217 µg/L.

**Q.** What about the Bioavailability ([1]; oral administration) of the same molecule?
**A.** The Bioavailability was 47.0%.

**Q.** What about the “Area under the curve” value ([1]; oral administration) of the same molecule?
**A.** The value was 1242.234 μg/L · h.

**Q.** What about the Clearance rate ([1]; oral administration) of the same molecule?
**A.** The Clearance rate was 214.62 mL/min/kg.

**Q.** And the Distribution volume ([1]; oral administration)?
**A.** Its Distribution volume is 154.811 L/kg.

**Q.** And the Half-life ([1]; oral administration)?
**A.** The Half-life was 9.62 h.

**Q.** What about the Maximum plasma concentration ([1]; oral administration) of the same molecule?
**A.** Its Maximum plasma concentration is 238.133 µg/L.

**Q.** What about the “acetylation of H3 (Ac-H3)” value [2] of the same molecule?
**A.** The value was “deacetylation of Ac-H3 by the compound III-2 was also demonstrated”.

**Q.** And the “acetylation of α-tubulin” value [2]?
**A.** Its value is “up-regulate the acetylated α-tubulin protease in a dose-dependent manner”.

**Q.** What about the IC50 ([3]; Liver cancer, Table 5, read-out: Half-Inhibitory Concentration IC50 HepG2) of the same molecule?
**A.** Its IC50 is 41 ± 1 nM.

**Q.** And the IC50 ([3]; incubated for 96 hours, read-out: Half-Inhibitory Concentration IC50 Human liver cancer cell HepG2)?
**A.** The IC50 was 10 to 100 nM.

**Q.** What about the IC50 (Human melanoma A375) of the same molecule?
**A.** The IC50 was 10 to 100 nM.

**Q.** What about the IC50 (Leukemia K562) of the same molecule?
**A.** The IC50 was 63 ± 18 nM.

**Q.** And the IC50 (Leukemia MV4-11)?
**A.** Its IC50 is 60 ± 32 nM.

**Q.** And the IC50 ([4]; SK-OV-3, Ovarian cancer, Table 5, read-out: Half-Inhibitory Concentration IC50 SKOV-3)?
**A.** The IC50 was 50 ± 8 nM.

**Q.** And the IC50 ([4]; SK-OV-3, incubated for 96 hours, read-out: Half-Inhibitory Concentration IC50 Human ovarian cancer cell SKOV-3)?
**A.** Its IC50 is 10 to 100 nM.

**Q.** And the IC50 (Multiple myeloma U266)?
**A.** The IC50 was 14 ± 6 nM.

**Q.** What about the IC50 ([5]; Cervical cancer, Table 5, read-out: Half-Inhibitory Concentration IC50 Hela) of the same molecule?
**A.** Its IC50 is 49 ± 20 nM.

**Q.** And the IC50 ([5]; incubated for 96 hours, read-out: Half-Inhibitory Concentration IC50 Human cervical cancer cell Hela)?
**A.** Its IC50 is 10 to 100 nM.

**Q.** What about the IC50 (B-cell lymphoma Ramos) of the same molecule?
**A.** Its IC50 is 71 ± 31 nM.

**Q.** What about the IC50 [6] of the same molecule?
**A.** The IC50 was 15 ± 4 nM.
